Assay results from PubChem BioAssay AID179 (DTP/NCI, 2004).
Active and inactive are the calls of the source.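 The calls were made as follows: active = compounds giving half or more protection of infected cells from virus-caused growth loss, again on retest; inactive = the rest.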 *1 amine or outer side, *2 acyl side, *3 side chain or, on linkers, in order; H or OH if unused. Where a SMILES comes first, the peptide text is derived from it. [ ]: non-standard residue; d: D form. X1 = O=C(C1=CN(Cc2ccccc2)C=CC1N[*:1])[*:2]

Tested on: CEM cells HIV-1 protection, formazan growth assay
Assay: NCI AIDS Antiviral Assay
Settings: for IC50: measured here: growth of uninfected CEM cells
Summary of the method: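 Protection of CEM cells against HIV-1 measured as cell growth via soluble formazan read-out, with five concentrations tested on both infected and uninfected cells; failure to protect may reflect toxicity.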

| Structure (SMILES) | outcome | EC50 [µM] | IC50 [µM] |
| --- | --- | --- | --- |
| Cc1noc(NS(=O)(=O)c2ccc(N=c3c4ccccc4n(-c4ccccc4)c4ccccc34)cc2)c1C | inactive |  |  |
| Cc1nc(Nc2ccccc2)sc1C(=O)CC(=O)C(=O)NC12CC3CC(CC(C3)C1)C2 |  | > 81.3 | > 81.3 |
| Cc1cn(C2C(CO)C(CO)C2(F)F)c(=O)[nH]c1=O (stereo not given) |  | > 200 | > 200 |
| O=C1NC(=O)C(C(=O)C(=O)Nc2cc(Cl)ccc2Cl)C(=O)N1 |  | > 380 | 302 |
| O=c1cc(-c2ccc(O)cc2)oc2cc(O[C@@H]3O[C@H](CO)[C@@H](O)[C@H](O)[C@H]3O)cc(O)c12 |  | > 200 | 4.57 |
| CCCc1nc(NC#N)nc(C(=O)NC23CC4CC(CC(C4)C2)C3)c1C |  | > 355 | > 355 |
| CCOC(=O)CC1CN(Cc2ccccc2)CCC1=O (stereo not given) | inactive |  |  |
| C=CCNC(=S)N1CC(C)C(=O)Nc2cc(Cl)ccc21 (stereo not given) |  | > 200 | > 200 |
| Cc1cc(C)n(-c2nc3ccccc3c(=O)n2-c2ccccc2)n1 |  | > 200 | > 200 |
| O=C1CN(Cc2ccc(Cl)cc2)CC(=O)N2Cc3ccccc3CN12 |  | > 191 | 148 |
| CC(=O)C(C(=O)CCSCCO)C(SCCO)c1ccc(Cl)c(Cl)c1 (stereo not given) |  | > 200 | 10.5 |
| CC(C)C[P+](c1ccccc1)(c1ccccc1)c1ccccc1 |  | > 20 | 2.19 |
| COC(=O)/C(=C/CC(N=C(c1ccccc1)c1ccccc1)C(=O)OC)N=C(c1ccccc1)c1ccccc1 (stereo not given) |  | > 9.77 | > 9.77 |
| CC(C)(C)C1CCC2c3c([nH]c4ccccc34)C3C(=O)N(c4cc(Br)cc(Br)c4)C(=O)C3C2C1 (stereo not given) |  | > 200 | 12.6 |
| COC(=O)c1cc(C(=CCN[C@@H]2CC[C@@]3(C)[C@@H](CC[C@@H]4[C@@H]3CC[C@]3(C)[C@@H]([C@H](C)CCCC(C)C)CC[C@@H]43)C2)c2cc(Cl)c(OC)c(C(=O)OC)c2)cc(Cl)c1OC |  | > 100 | > 100 |
| C=C(C)[C@H]1CC(=O)[C@@]2(C)C[C@H]3O[C@]3(C)CC/C=C(\C)CC[C@H]12 |  | > 200 | 55 |
| COc1ccc([N+](=O)[O-])cc1NC(=O)c1ccc2c(c1)C(=O)OC2=O |  | 29.5 | 64.6 |
| CN(C)C1C(=O)C(C(=O)NCN2CCOB(c3ccccc3)OCC2)=C(O)C2(O)C(O)=C3C(=O)C4C(O)=CC=CC4C(C)(O)C3CC12 (stereo not given) |  | 31.6 | 39.8 |
| CC1NC(=O)C(C(C)C)NC(=O)C2=CN(Cc3ccccc3)C=CC2NC(=O)C(C)NC(=O)C(C(C)C)NC(=O)C2=CN(Cc3ccccc3)C=CC2NC1=O (stereo not given) (cyclo([X1]VA[X1]VA); configuration not given here) |  | > 23.4 | > 23.4 |
| COc1ccc2nc3cc([N+](=O)[O-])ccc3c(Nc3ccc(S(=O)(=O)NC(C)=O)cc3)c2c1 |  | > 200 | 75.9 |
| CC(=O)C1=C(C)NC2C=CC=CN12 (stereo not given) |  | > 1410 | 676 |

| Structure (SMILES) | outcome | EC50 [µM] | IC50 [µM] |
| --- | --- | --- | --- |
| CC(=O)[C@H]1CC[C@H]2[C@@H]3C=CC4=CC(=O)CC[C@@]4(C)[C@@H]3CC[C@]12C |  | > 126 | 79.4 |
| NN1CCc2ccccc2C1 |  | > 200 | > 200 |
| CC1=C(C(=O)Nc2ccccc2C)C(c2ccccc2)C(C(=O)Nc2ccccc2C)=C(C)N1 |  | > 11.5 | > 11.5 |
| O=C(NCCc1c[nH]c2ccccc12)C(F)(F)C(F)(F)F |  | > 200 | 38 |
| NC(=Nc1ccc(O)cc1)S(=O)O |  | > 200 | 120 |
| CC1SC2=NC3=C(c4ccccc4C3=O)C(c3ccc(Br)cc3)N2C1=O (stereo not given) |  | > 32.4 | > 32.4 |
| CSC1=C(SC)C(=O)c2cn(C)c(=O)cc2C1=O |  | > 200 | 0.977 |
| CC(C)C1=CC23CCC4C(C)(C(=O)O)CCCC4(C)C2CC1C1C(=O)N(c2ccc(Cc4ccc(N5C(=O)C6C7CC8C9(C)CCCC(C)(C(=O)O)C9CCC8(C=C7C(C)C)C6C5=O)cc4)cc2)C(=O)C13 (stereo not given) |  | > 35.5 | 13.8 |
| COc1ccc2[nH]c3c(c2c1)C(=O)c1ccncc1C3=O |  | > 20 | 1.2 |
| CN(C)CC/C=C1\c2ccccc2CN(C)c2ccccc21 |  | > 200 | 33.1 |
| C=CCc1oc(C)nc1CCCC |  | > 200 | > 200 |
| C=CCc1ccccc1N(C(=O)c1ccccc1)C(C(=O)OCC)c1ccccc1 (stereo not given) |  | > 13.2 | > 13.2 |
| NCCSSc1ccccc1[N+](=O)[O-] |  | > 200 | 11.2 |
| O=C(O)C1=C/C(=C(/c2ccccc2)c2cc(C(=O)O)c(O)c3ccccc23)c2ccccc2C1=O | inactive |  |  |
| O=C1C=C(Nc2ccc(Cl)cc2Cl)c2ccccc2C1=O |  | > 1.7 | > 1.7 |
| C=CCN(N=O)C(=O)N(CCCC(NC(C)=O)C(=O)NCc1ccccc1)Cc1ccccc1 (stereo not given) |  | > 40.7 | > 40.7 |
| NC(=O)c1ncn(C2OC(CO)C(O)C2O)c1NC=O (stereo not given) |  | > 200 | > 200 |
| O=C1NC2(CCCCC2)C2=C1CCCCC2 | inactive |  |  |
| CC(=O)OCC1OC(N2C(=S)N[C@H]([C@@H](O)[C@H](O)[C@H](O)CO)[C@H]2O)C(OC(C)=O)C(OC(C)=O)C1OC(C)=O (stereo not given in full) |  | > 200 | > 200 |
| Cc1ncc(CCl)c2c1OC(C)(C)OC2 |  | > 676 | 7.94 |
| Nc1nc(NNc2ccc(Cl)c(Cl)c2)cc(=O)[nH]1 |  | > 200 | 49 |
